Ki data for 3 compounds are collected here from patent US12723063B2, “GIPR-agonist compounds” (Eli Lilly and Company, priority 2019, dated 2026).

*1 amine or outer side, *2 acyl side, *3 side chain or, on linkers, in order; H or OH if unused. Where a SMILES comes first, the peptide text is derived from it. Side-chain parts run from the residue outwards. [ ]: non-standard residue; d: D form. The star is where a group is joined. C20 diacid = O=C(O)CCCCCCCCCCCCCCCCCCC(=O)*; αMePhe(2-F) = C[C@](N)(Cc1ccccc1F)C(=O)O; γGlu = O=C(O)[C@H](CCC(=O)[*:2])N[*:1]; αMeL = CC(C)C[C@](C)(N)C(=O)O; AEEA = NCCOCCOCC(=O)O; Aib = CC(C)(N)C(=O)O

In the test the target is T1, human GLP-1R (Homo sapiens, UniProt P43220).
T1 construct: expressed in transfected cells; crude membranes
T1 sequence (P43220 24-463): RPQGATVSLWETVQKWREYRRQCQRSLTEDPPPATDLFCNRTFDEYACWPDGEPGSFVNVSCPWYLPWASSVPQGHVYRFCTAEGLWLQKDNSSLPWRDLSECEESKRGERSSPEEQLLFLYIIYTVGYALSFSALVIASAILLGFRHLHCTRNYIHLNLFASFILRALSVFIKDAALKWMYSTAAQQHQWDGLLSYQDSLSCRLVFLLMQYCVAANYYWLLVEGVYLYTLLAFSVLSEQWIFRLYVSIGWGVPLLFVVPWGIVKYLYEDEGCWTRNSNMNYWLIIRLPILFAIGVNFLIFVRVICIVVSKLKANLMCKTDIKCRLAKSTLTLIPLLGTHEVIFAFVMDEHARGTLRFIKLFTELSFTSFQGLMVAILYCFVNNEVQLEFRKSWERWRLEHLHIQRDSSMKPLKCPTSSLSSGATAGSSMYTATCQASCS
The experiment in a line: [125I]-GLP-1 binding, SPA with WGA beads, 0.1% bacitracin. Conditions: geometric mean, read-out: hGLP1R Ki. The method, boiled down: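 Binding buffer was 25 mM HEPES pH 7.4 with 2.5 mM CaCl2, 1 mM MgCl2, 0.1% (w/v) bacitracin, 0.003% Tween-20 and EDTA-free protease inhibitors. Four-parameter regression gave IC50, converted to Ki (geometric mean, SEM, n independent days).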
For the compound `CC[C@H](C)[C@H](NC(=O)[C@H](CO)NC(=O)[C@H](Cc1ccc(O)cc1)NC(=O)[C@H](CC(=O)O)NC(=O)[C@H](CO)NC(=O)[C@@H](NC(=O)[C@](C)(Cc1ccccc1F)NC(=O)[C@@H](NC(=O)CNC(=O)[C@H](CCC(=O)O)NC(=O)C(C)(C)NC(=O)[C@@H](N)Cc1ccc(O)cc1)[C@@H](C)O)[C@@H](C)CC)C(=O)N[C@@H](C)C(=O)N[C@@H](CC(C)C)C(=O)N[C@@H](CC(=O)O)C(=O)N[C@@H](CCCCN)C(=O)N[C@@H](CCCCNC(=O)COCCOCCNC(=O)COCCOCCNC(=O)CC[C@H](NC(=O)CCCCCCCCCCCCCCCCCCC(=O)O)C(=O)O)C(=O)N[C@@H](Cc1c[nH]cn1)C(=O)N[C@@H](CCC(N)=O)C(=O)NC(C)(C)C(=O)N[C@@H](CC(=O)O)C(=O)N[C@@H](Cc1ccccc1)C(=O)N[C@H](C(=O)N[C@@H](CCC(=O)O)C(=O)N[C@@H](Cc1ccc(O)cc1)C(=O)N[C@@H](CC(C)C)C(=O)N[C@@H](CC(C)C)C(=O)N[C@@H](CCC(=O)O)C(=O)NCC(=O)NCC(=O)N1CCC[C@H]1C(=O)N[C@@H](CO)C(=O)N[C@@H](CO)C(=O)NCC(=O)N[C@@H](C)C(=O)N1CCC[C@H]1C(=O)N1CCC[C@H]1C(=O)N1CCC[C@H]1C(=O)N[C@@H](CO)C(N)=O)C(C)C` [Example 37] (H-Y[Aib]EGT[αMePhe(2-F)]ISDYSIALDKK([AEEA-AEEA-γGlu-C20 diacid])HQ[Aib]DFVEYLLEGGPSSGAPPPS-NH2), the Ki amounted to 83.9 nM.

As for `CC[C@H](C)[C@H](NC(=O)[C@H](Cc1ccccc1)NC(=O)[C@@H](NC(=O)CNC(=O)[C@H](CCC(=O)O)NC(=O)C(C)(C)NC(=O)[C@@H](N)Cc1ccc(O)cc1)[C@@H](C)O)C(=O)N[C@@H](CO)C(=O)N[C@@H](CC(=O)O)C(=O)N[C@@H](Cc1ccc(O)cc1)C(=O)N[C@@H](CO)C(=O)N[C@H](C(=O)N[C@@](C)(CC(C)C)C(=O)N[C@@H](CC(C)C)C(=O)N[C@@H](CC(=O)O)C(=O)N[C@@H](CCCCN)C(=O)N[C@@H](CCCCNC(=O)COCCOCCNC(=O)COCCOCCNC(=O)CC[C@H](NC(=O)CCCCCCCCCCCCCCCCCCC(=O)O)C(=O)O)C(=O)N[C@@H](Cc1c[nH]cn1)C(=O)N[C@@H](CCC(N)=O)C(=O)NC(C)(C)C(=O)N[C@@H](CCC(=O)O)C(=O)N[C@@H](Cc1ccccc1)C(=O)N[C@H](C(=O)N[C@@H](CCC(=O)O)C(=O)N[C@@H](Cc1ccc(O)cc1)C(=O)N[C@@H](CC(C)C)C(=O)N[C@@H](CC(C)C)C(=O)N[C@@H](CCC(=O)O)C(=O)N[C@@H](C)C(=O)NCC(=O)N1CCC[C@H]1C(=O)N[C@@H](CO)C(=O)N[C@@H](CO)C(=O)NCC(=O)N[C@@H](C)C(=O)N1CCC[C@H]1C(=O)N1CCC[C@H]1C(=O)N1CCC[C@H]1C(=O)N[C@@H](CO)C(N)=O)C(C)C)[C@@H](C)CC` [Example 65] (H-Y[Aib]EGTFISDYSI[αMeL]LDKK([AEEA-AEEA-γGlu-C20 diacid])HQ[Aib]EFVEYLLEAGPSSGAPPPS-NH2), the inhibition constant Ki amounted to 305 nM.

With `CC[C@H](C)[C@H](NC(=O)[C@H](Cc1ccccc1)NC(=O)[C@@H](NC(=O)CNC(=O)[C@H](CCC(=O)O)NC(=O)C(C)(C)NC(=O)[C@@H](N)Cc1ccc(O)cc1)[C@@H](C)O)C(=O)N[C@@H](CO)C(=O)N[C@@H](CC(=O)O)C(=O)N[C@@H](Cc1ccc(O)cc1)C(=O)N[C@@H](CO)C(=O)N[C@H](C(=O)N[C@@](C)(CC(C)C)C(=O)N[C@@H](CC(C)C)C(=O)N[C@@H](CC(=O)O)C(=O)N[C@@H](CCCCN)C(=O)N[C@@H](CCCCNC(=O)COCCOCCNC(=O)COCCOCCNC(=O)CC[C@H](NC(=O)CCCCCCCCCCCCCCCCCCC(=O)O)C(=O)O)C(=O)N[C@@H](Cc1c[nH]cn1)C(=O)N[C@@H](CCC(N)=O)C(=O)NC(C)(C)C(=O)N[C@@H](CCC(=O)O)C(=O)N[C@@H](Cc1ccccc1)C(=O)N[C@H](C(=O)N[C@@H](CCC(=O)O)C(=O)N[C@@H](Cc1ccncc1)C(=O)N[C@@H](CC(C)C)C(=O)N[C@@H](CC(C)C)C(=O)N[C@@H](C)C(=O)NCC(=O)NCC(=O)N1CCC[C@H]1C(=O)N[C@@H](CO)C(=O)N[C@@H](CO)C(=O)NCC(=O)N[C@@H](C)C(=O)N1CCC[C@H]1C(=O)N1CCC[C@H]1C(=O)N1CCC[C@H]1C(=O)N[C@@H](CO)C(N)=O)C(C)C)[C@@H](C)CC` [Example 52], the Ki is 128 nM.
